The record followed here is US5801182A, “Amine substituted compounds” (Cell Therapeutics, Inc., priority 1995, dated 1998).

Series [1] has as its system Mouse bone marrow cells (CFU-GM). Briefly: CFU-GM colony assay, effect on normal bone marrow cells. In kind it is cell-based. Conditions: for toxicity for normal mouse marrow cells: 8 hours incubation, CFU-GM after 7 days, FIGS. 12-16; for effect on normal cells compared to known chemotherapeutic compounds in vitro: vs vinblastine, 5-fluorouracil, doxorubicin or cisplatinum. An excerpt:
This example illustrates a method for examining an effect of the inventive compounds, showing potential as cancer therapies on normal cells. This assay has been used clinically to evaluate recovery of patients' marrow following chemotherapy or radiation. In this specific example, inventive compounds nos.
Mouse bone marrow cells are useful in this assay because they produce colonies, which can later be counted, in culture. The colonies are called colony forming unit-granulocyte macrophage (CFU-GM) and depend on a source of colony stimulating factor for growth.
Cells were cultured with inventive compounds nos. 3563, 3576, 3581, 3584 and 4500, to comparatively evaluate an effect on normal cells of inventive compounds identified as potential cancer therapies. Procedurally, cells were incubated for 8 hours with various concentrations of these compounds. A negative control without any compound was simultaneously prepared. After 8 hours, the incubated cells were washed thoroughly and a consistent number were subsequently plated to obtain CFU-GM. Colonies were permitted to grow for 7 days at 37° C., in 5% CO2. After 7 days of growth, colony growths were counted microscopically. Data obtained in this assay for inventive compounds nos. 3563, 3576, 3581, 3584 and 4500 are plotted in FIGS. 12, 13, 14, 15 and 16, respectively. The data in the figures are shown to compare the colonies counted for cells incubated with varying concentrations of the compounds tested against the negative control, without compound. At concentrations ranging from 5 to 30 μM, more colonies existed for cells incubated with the inventive potential cancer compound than with known, chemotherapeutic agents. Compound no.

Series [2] relates to HIV long terminal repeat (LTR) promotor. Briefly: Inhibition of reporter gene (alkaline phosphatase) expression directed by HIV-LTR promotor in 293-EBNA cells. It is filed as cell-based. The note with it: Human immunodeficiency virus 1; reporter gene directed by HIV-LTR promotor in 293-EBNA cells; FIGS. 17, 19, 21. An excerpt:
This example is an assay used to measure anti-viral activity of inventive compounds nos. […] This assay is predictive of anti-viral activity for retroviruses. Specifically,a plasmid construct, pHIV.AP, using the human immunodeficiency virus (HIV) long terminal repeat (LTR) promotor [derived from pU3R-III CAT (Sodroski et al. Science, Vol. 227, page 171, 1985) to direct the expression of secreted human placental alkaline phosphatase reporter gene and an expression vector for a 72 amino acids tat protein from HIV (Frankel et al., Cell, Vol. 55, pages 1189-1193, 1988) were transfected into a tumor cell line (e.g., 293-EBNA cells). The stably transfected cells were treated with various concentrations of the inventive compounds. The expression of the alkaline phosphatase (AP) reporter gene in the individual cultures was then measured by following the change in absorbance at A405 of cell conditioned media in the presence of a suitable substrate (e.g., ortho-nitrophenol phosphate). Berger et al., Gene, Vol. 66, pages 1-10, 1988.
(In general: A reporter such as luciferase makes a cellular process visible.)

Series [3] can be described thus: Viability of 293-EBNA cells (alamarBlue colorimetric assay). It is filed as cell-based. Conditions: human, 293-ebna cells; alamarBlue; FIGS. 18, 20, 21; read-out: LD50, 293-EBNA cells. How it is done: (§1) The effect of respective inventive compounds on the viability of 293-EBNA cells was measured by a colorimetric assay that uses the alamarBlue® dye (purchased from Alamar Biosciences, Inc.) to report cell proliferation, viability and cytotoxicity. This dye is an oxidation-reduction (Redox) indicator that changes color in response to chemical reduction of growth medium resulting from cell growth. The general procedure involves adding alamarBlue® in an amount equal to 10% of the culture volume, returning the culture to incubator for four hours, and measuring the absorbance at 570 nm after subtraction of background absorbance at 600 nm.

A further series concerns 293-EBNA cells. The series is described as above. In kind it is cell-based. Here is the method:
as §1

A further series deals with human stromal cells. The experiment in a line: PDGF-induced proliferation in human stromal cells. Conditions: for concentration at which comparative compounds' activity is apparent: 50 ng/ml PDGF-BB, human stromal cells, FIG. 23. It is filed as cell-based. How it is done: 3506 on PDGF-induced proliferation in human stromal cells. Procedurally, human stromal cells were starved in serum-free media for 24 hours and then stimulated with 50 ng/ml PDGF. Compound no. 3506 was added at various concentrations one hour prior to PDGF stimulation and pulsed for 24 hours. Cells were harvested and cell proliferation measured having background counts (i.e., starved cells) at about 10% of control levels.
Human stromal cells were starved in serum-free media for 24 hours and then stimulated with 50 ng/ml PDGF-BB. The drugs were added at various concentrations one hour prior to PDGF stimulation. Tritiated thymidine was added at the time of PDGF stimulation and pulsed for 24 hours. Cells were harvested and cell proliferation measured (FIG. 23). Background counts (i.e., starved cells) were about 10% of control levels.

Series [4] relates to Balb/3T3 cells. Briefly: PDGF-induced proliferation of Balb/3T3 cells (tritiated thymidine). The note with it: Mus musculus, BALB/3T3, 24 h; PDGF-stimulated; FIGS. 2 and 4; read-out: concentrations inhibiting proliferation of Balb/3T3 cells stimulated by PDGF. It is filed as cell-based. Here is the method: Disregulated PDGF-proliferative response has been linked to a variety of diseases, including, e.g., restenosis, atherosclerosis, fibrosis, and tumor cell angiogenesis. Balb/3T3 cells respond vigorously to PDGF stimulation, and are useful in vitro models for further study of PDGF-induced proliferation.
Balb/3T3 cells were plated in low serum-containing medium for 24 hours prior to stimulation with various concentrations of inventive compounds nos. 3556 and 4500. PDGF was added at varying concentrations along with tritiated thymidine. The cells were allowed to incubate for one day, following addition of PDGF and thymidine. Twenty-four hours later, the cells were harvested and counted by liquid scintillation counting. FIGS. 2 and 4 report data for inventive compounds nos. 3556 and 4500, respectively, obtained in this proliferation assay. The results shown in each respective figure illustrate that inventive compounds nos.

Series [5] relates to Balb/3T3 cells. Briefly: Viability (cytotoxicity) assay of Balb/3T3 cells with BCECF. Conditions: at the concentrations at which the compounds inhibit proliferation; vs control value of 100%; FIGS. 3 and 5. In kind it is cell-based. How it is done:
In conjunction with the Balb/3T3 proliferation assay, a related viability assay was conducted to assess the cytotoxicity of compounds which inhibit proliferation in this system. The assay protocol was identical to that performed above except that tritiated thymidine was not added after the 24 hour incubation with PDGF. In this cytotoxicity assay, after incubating the cells, a 10 μM solution of BCECF was added and the cells were incubated for 30 minutes at 37° C. Following this incubation, BCECF was replaced with PBS and the plate read for fluorescence in a Millipore cytofluorometer. Data obtained was plotted as a percent of control versus concentration of inventive compound tested. FIGS. 3 and 5 represent the results of this viability assay, for compounds nos. 3556 and 4500, respectively.

The test system of the next series is thymocytes. Briefly: Thymocyte proliferation and activation, co-stimulated with Con A and IL-2. Conditions: Mus musculus, 2 h, compound added two hours prior, FIGS. 6-11. It is filed as cell-based, Balb/C mice. Here is the method:
3506, 3556, 3563, 3576, 3581, 3582 and 3584 on thymocyte proliferation and activation, co-stimulated with Concanavalin A (Con A) and interleukin-2 (IL-2), at various concentrations of the compounds (IC50). Con A and IL-2 together stimulate T cell proliferation and differentiation.
Thymuses, obtained from normal, female Balb/C mice, were dissociated and plated into 96-well plates at a density of 2×10^5 cells/well. Con A ([…]) and IL-2 (15 U/ml) were added to the wells. The cells were incubated for 4 days at 37° C. On day 4, the cells were pulsed with tritiated thymidine and incubated for an additional 4 hours. Incorporated tritiated thymidine of harvested cells was determined in a liquid scintillation counter. Results plotted as dose concentration versus proliferation for inventive compounds nos. 3506, 3556, 3563, 3576, 3581, 3582 and 3584 are shown in FIGS. 6 (3506), 7 (3556), 8 (3563), 9 (3576), 10 (3581 and 3582) and 11 (3584). Respective concentrations of inventive compound (shown in the figures) were added two hours prior to Con A and IL-2 activation. Background counts were less than 200 cpm.

As usually defined, the IC50 is the concentration needed to halve the response being measured. High values mean a need for much substance, low ones inhibition by little substance. With `CCCCCCCCCCCCNCCCCCCCCCCCn1c(=O)c2c(ncn2C)n(C)c1=O` [compound no. 3563], in series [1], the “toxicity for normal mouse marrow cells” value is reported as “most cytotoxic to proliferative potential of the mouse marrow cells” and the “effect on normal cells compared to known chemotherapeutic compounds in vitro” value was “less deleterious to normal cells”. Further, in series [2], the IC50 is < 4 µM. Also, the CC50 in series [3] is < 7 µM.
As for `CCCCCCCCCCCCCCCCNCCCCCCCCCCCn1c(=O)c2c(ncn2C)n(C)c1=O` [compound 3584], the “effect on normal cells compared to known chemotherapeutic compounds in vitro” value in series [1] was “less deleterious to normal cells”. The IC50 in series [2] is < 10 µM. Further, the CC50 in series [3] is < 15 µM.
Consider `CCCCCCCCCCCCCCNCCCCCCCCCCCn1c(=O)c2c(ncn2C)n(C)c1=O` [compound 3582], for which, in series [2], the IC50 is < 5 µM. Besides, the CC50 in series [3] is < 5 µM.
Consider `COc1cc(CNCCCCCCCCCCCn2c(=O)c3c(ncn3C)n(C)c2=O)cc(OC)c1OC` [compound no. 3593], for which the IC50 in series [2] is < 25 µM. In the series on 293-EBNA cells, the “cytotoxicity to 293-EBNA cells (in words)” value (“cytotoxicity … (in words)” below) is on record as “little cytotoxicity, even at >32 μM”.
Regarding `CC(=O)CCCCCCn1c(=O)c2c(ncn2C)n(C)c1=O` [A, 1-(7-oxooctyl)-3,7-dimethylxanthine], in the series on human stromal cells, the “concentration at which comparative compounds' activity is apparent” value was “millimolar concentrations”.
On to `CCCCCCCCCCCCCCCNCCCCCCCCCCCn1c(=O)c2c(ncn2C)n(C)c1=O` [compound no. 4508], for which, in series [2], the IC50 is < 10 µM. For the same compound, the CC50 in series [3] is < 10 µM.
For `CCCCCCN(C)CCCCCCCCCCCn1c(=O)c2c(ncn2C)n(C)c1=O` [compound no. 4500], the minimal effective concentration with Balb/3T3 cells [4] was < 30 µM. Besides, the “cytotoxicity to Balb/3T3 cells” value in the series with Balb/3T3 cells [5] was “not cytotoxic to any cells”. In series [1], the “toxicity for normal mouse marrow cells” value is given as “virtually no toxicity at elevated concentrations”. Moreover, the half-maximal inhibitory concentration (IC50) in series [2] was < 10 µM.
On to `CCCCCCN(CCCCCC)CCCCCCCCCCCn1c(=O)c2c(ncn2C)n(C)c1=O` [compound no. 3590], for which the IC50 in series [2] was < 20 µM. Also, in the series on 293-EBNA cells, the “cytotoxicity … (in words)” value was “little cytotoxicity even at >32 μM”.
Regarding `CC(CCCCn1c(=O)c2c(ncn2C)n(C)c1=O)N(C)C` (centres unmarked) [B, 1-(5-dimethylaminohexyl)-3,7-dimethylxanthine], the “concentration at which comparative compounds' activity is apparent” value in the series on human stromal cells is “millimolar concentrations”.
On to `CCCCCCCCCCNCCCCCCCCCCCn1c(=O)c2c(ncn2C)n(C)c1=O` [compound 3581], for which the “effect on normal cells compared to known chemotherapeutic compounds in vitro” value in series [1] was “less deleterious to normal cells”. In addition, the IC50 in series [2] is < 5 µM. In addition, in series [3], the CC50 was < 10 µM.
`CCCCCCCCCCCNCCCCCCn1c(=O)c2c(ncn2C)n(C)c1=O` [compound no. 3506]: the “PDGF-induced proliferation in human stromal cells” value in the series with human stromal cells (50 ng/ml PDGF, compound added one hour prior, FIG. 1) is on record as “inhibition of PDGF-induced proliferation”. In the series with thymocytes, this compound registered an IC50 of 2.3 µM.
Consider `CCCCCCCCCCCCN(C)CCCCCCCCCCCn1c(=O)c2c(ncn2C)n(C)c1=O` [compound 3576], for which the IC50 was 0.26 µM with thymocytes and < 10 µM in series [2]. For the same compound, the “effect on normal cells compared to known chemotherapeutic compounds in vitro” value in series [1] was “less deleterious to normal cells”. Also, in series [3], the CC50 was < 15 µM.
`CCCCCCNCCCCCCCCCCCn1c(=O)c2c(ncn2C)n(C)c1=O` [compound no. 3580]: the IC50 in series [2] was < 10 µM. Besides, the CC50 in series [3] is < 30 µM. In addition, the “cytotoxicity … (in words)” value in the series on 293-EBNA cells was “minimal cytotoxicity”.
For `CCCCCCCCCCCCCNCCCCCCCCCCCn1c(=O)c2c(ncn2C)n(C)c1=O` [compound 4507], the IC50 in series [2] was < 4 µM. Besides, in series [3], the CC50 is < 7 µM.
